The source of these data is patent US7235584B2, “Non-psychotropic cannabinoids” (Pharmos Corporation, priority 2000, dated 2007).

Test [1] has as its system NMDA receptor. Kind of test: [3H]MK-801 displacement radioligand binding, rat forebrain membranes. The settings on record: for IC50: displacement of [3H]MK-801, rat forebrain membranes, read-out: NMDA BINDING IC50. The procedure: The identification of possible recognition sites for PRS-211 analogs was carried out by measuring the ability of these PRS-211 analogs to inhibit the binding of MK-801 to rat forebrain membranes.
Brains were removed from Sprague-Dawley rats no more than 5 min after decapitation. Membrane preparations were isolated according to a procedure described previously (Eshhar et al., Brain Res. 476:57, 1989). Prior to radioligand binding measurements, endogenous glutamate present in membranes was removed from the preparation by subjecting the membranes to 3–4 successive washings in 10 mM Tris HCl pH 7.2, performed at 4° C.
The specific binding of the new analogs to NMDA receptors was determined by their ability to displace [^3H]MK-801 from NMDA receptor in rat forebrain preparations. Specifically, rat-forebrain membranes (0.1 mg) were incubated for 2 hours at room temperature with 10 nM of tritiated MK-801 and with the PRS-211 compounds at 3 doses each. Non-specific binding was determined by the use of 0.1 mM MK-801. Following the incubation, bound radioligand was separated from unbound by filtration through GF/B filters. The filters were counted in a β-counter and log of analog concentrations versus % of [^3H]MK-801 specific binding was plotted. The IC50 was calculated from this plot.
Binding of [^3H]MK-801 to membranes was carried out in the presence of 30 μM glycine and 10 μM L-glutamate. Membranes (250 μg protein) were resuspended in 50 mM tris-acetate pH 7.4 buffer and incubated with 10 nM [^3H]MK-801, either alone or in the presence of PRS-211 compounds at 0.1–100 μM concentrations for three hours at room temperature (RT). Reaction buffers used in the different radioligand binding studies contained 10% of an ethanol/Emulphor 620/deionized water mixture. The ratio (by volume) of the respective components in the mixture was 20/3/57. This mixture is required for solubilizing PRS-211 compounds at concentrations above 30 μM. Reaction volume was 1 ml. Non-specific [^3H]MK-801 binding was determined in the presence of 100 μM unlabeled MK-801.
Concentration dependence of certain PRS-211 analogs on inhibition of [^3H]MK-801 binding is illustrated in FIG. 1.

The subject of test [2] is TNFα. As to the kind of experiment: Inhibition of TNFα in LPS-activated macrophage cell cultures (ELISA). In kind it is cell-based. The procedure:
Specific aspects of the inflammatory response cascade are mediated by the cytokine TNFα. Inhibition of TNFα production and/or inhibition of TNFα release by the new analogs are assayed in macrophage cell cultures activated with LPS. This serves as another indication of the general anti-inflammatory potential of the novel compounds.
The method for macrophage cell culture growth is identical to the one described in PGE2 assay. Aliquots of the supernatants collected following stimulation with LPS were quantitated for TNFα by enzyme linked immunosorbent assay (ELISA) using HRP conjugated to anti-TNFα antibodies and […] for the colorimetric reaction. The peroxidase catalyzed color reaction was stopped by acidification and the absorbance at 450 nm is measured. The absorbance at this wavelength is proportional to the concentration of TNFα in the sample determined from a standard curve plotting the concentrations of TNFα standards versus their absorbance.
In general terms: An ELISA detects its analyte on a solid surface through an enzyme-linked reagent.

For test [3], the system named is T1, nitric oxide synthase (NOS).
T1 construct: endogenous in cells
T1 sequence (P35228 whole entry): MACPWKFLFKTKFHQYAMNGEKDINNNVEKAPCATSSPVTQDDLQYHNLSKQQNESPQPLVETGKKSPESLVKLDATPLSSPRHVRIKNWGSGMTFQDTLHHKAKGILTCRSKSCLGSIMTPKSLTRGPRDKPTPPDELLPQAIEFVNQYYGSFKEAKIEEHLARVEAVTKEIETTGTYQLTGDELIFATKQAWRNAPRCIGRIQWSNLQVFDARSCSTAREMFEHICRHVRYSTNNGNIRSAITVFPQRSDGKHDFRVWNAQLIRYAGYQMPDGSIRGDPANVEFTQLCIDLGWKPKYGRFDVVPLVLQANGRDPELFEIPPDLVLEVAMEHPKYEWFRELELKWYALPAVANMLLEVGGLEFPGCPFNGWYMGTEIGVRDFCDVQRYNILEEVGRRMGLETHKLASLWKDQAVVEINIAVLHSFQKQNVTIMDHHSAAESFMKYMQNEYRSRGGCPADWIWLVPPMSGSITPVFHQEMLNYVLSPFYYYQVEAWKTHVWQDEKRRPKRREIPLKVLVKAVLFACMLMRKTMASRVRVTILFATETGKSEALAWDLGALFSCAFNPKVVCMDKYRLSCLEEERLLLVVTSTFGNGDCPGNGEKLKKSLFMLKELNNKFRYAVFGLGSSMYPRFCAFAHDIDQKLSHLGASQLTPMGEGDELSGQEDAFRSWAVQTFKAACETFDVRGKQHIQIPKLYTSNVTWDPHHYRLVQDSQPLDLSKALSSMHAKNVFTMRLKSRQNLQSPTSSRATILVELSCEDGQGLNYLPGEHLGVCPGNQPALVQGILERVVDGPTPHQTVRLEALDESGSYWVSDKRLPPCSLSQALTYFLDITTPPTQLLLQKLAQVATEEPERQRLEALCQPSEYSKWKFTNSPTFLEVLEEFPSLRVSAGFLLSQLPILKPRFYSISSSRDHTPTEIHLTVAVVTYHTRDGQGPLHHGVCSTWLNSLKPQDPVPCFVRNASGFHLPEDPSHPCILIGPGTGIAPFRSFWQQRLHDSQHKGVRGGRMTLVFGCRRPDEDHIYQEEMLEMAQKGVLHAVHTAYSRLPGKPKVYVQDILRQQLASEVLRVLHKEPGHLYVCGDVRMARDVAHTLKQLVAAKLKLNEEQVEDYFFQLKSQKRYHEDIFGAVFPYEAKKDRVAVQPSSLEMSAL
Kind of test: Inhibition of nitric oxide synthase, fluorimetric nitrite assay in LPS-stimulated macrophage supernatants. In kind it is cell-based. The settings on record: macrophage cell cultures. The method, then:
As one aspect of the anti-oxidative potential of the novel analogs they were tested for their ability to inhibit the enzyme nitric oxide synthase (NOS). This assay can also serve as another indication of the anti-inflammatory cascade, as well as the anti-oxidative mechanisms.
The final products of NOS are Nitrite (NO2) and Nitrate (NO3). The in vitro fluorimetric assay provides an accurate method for the measurement of the Nitrite, which is the majority of NO products. The principle of the fluorimetric assay is based on the addition of DAN (2,3-diaminonaphthalene) to the aliquots of the supernatants collected from macrophage cell cultures incubated with the new analogs and stimulated with LPS. Following, NaOH was added to convert Nitrite to a fluorescent compound 1(H)-naphthtriazole. The fluorescence was measured immediately in a fluorimeter using excitation wavelength of 365 nm and an emission wavelength of 450 nm.

Test [4] has as its system cannabimimetic activity. The settings on record: in vivo; cited from earlier work.

Broadly, the IC50 is the concentration that gives 50% inhibition. For orientation: inhibition means the percentage by which the read-out fell short of the control. Higher therefore signals a response far below the control.

On to `CCCCCCC(C)(C)c1cc(O)c2c(c1)OC(C)(C)[C@H]1CC=C(CN3CCC(N4CCCCC4)CC3)CC21` (single isomer, unassigned; (+)) [211,257-000], for which, in test [1], the “NMDA receptor binding / affinity (in words)” value is listed as “do not exhibit substantial NMDA receptor binding”. In addition, in test [1], the IC50 was greater than 100 µM. The figures for the inhibition at 10 µM in test [2] and in test [3] were 10% and 39%, respectively.
The corresponding values for `CCCCCCC(C)(C)c1cc(O)c2c(c1)OC(C)(C)[C@H]1CC=C(CN3CCC(N4CCCC4)CC3)C[C@H]21` [211,253-000] are “do not exhibit substantial NMDA receptor binding”, greater than 100 µM, 0% and 27%.
The matching figures for `CCCCCCC(C)(C)c1cc(O)c2c(c1)OC(C)(C)[C@H]1CC=C(CN(Cc3ccccc3)c3ccccc3)C[C@H]21` [211,255-000]: “do not exhibit substantial NMDA receptor binding”, greater than 100 µM, 0% and 7%.
In the case of `CCCCCCC(C)(C)c1cc(O)c2c(c1)OC(C)(C)[C@@H]1CC=C(CO)C[C@@H]21` [HU-210], in test [4], the “cannabimimetic activity relative to Δ-1-tetrahydrocannabinol” value is roughly 100 times.
